Like-named read-outs stand apart in the source and are kept apart here.

Assay [1] addresses T1, d746-750/T790M/C797S mutant EGFR (Homo sapiens, UniProt P00533, C797S/DEL746-750/T790M).
T1 construct: purchased Reaction Biology Corp. (Malvern, PA, USA)
The assay can be described thus: radiometric ([γ-33P]-ATP) kinase assay, triple mutant EGFR. The following applies: for Selectivity: wild type IC50 over triple mutant IC50; for Selectivity Index (IC50^WT/IC50^mutant): ratio of IC50 for the wild type to that for the triple mutant. The class given is biochemical. How it is done:
(§1) This small number of virtual hits exemplifies the difficulty in discovering the fourth-generation inhibitors that are specific for the triple mutant. This can be understood in the context of the high structural similarity between the mutant and the wild type. All virtual hits were assessed for the presence of inhibitory activity against the d746-750/T790M/C797S mutant and the wild type via in vitro radiometric ([γ-^33P]-ATP) kinase assays (Reaction Biology Corp., Malvern, PA, USA). As a consequence of virtual and experimental screening, four molecules were identified as low-micromolar inhibitors of d746-750/T790M/C797S mutant. Actually, none of the four molecules have previously been reported as EGFR kinase inhibitors. With respect to disproving the possibility of acting as a false positive in enzyme inhibition assays, all four inhibitors were examined in the public ZINC database to confirm the lack of any substructure in pan assay interference compounds (PAINS).
(§2) The inhibitory activities of all compounds with respect to the wild type and the d746-750/T790M/C797S mutant of EGFR were measured by Reaction Biology Corp. (Malvern, PA, USA) using the radiometric kinase assays ([γ-^33P]-ATP). Briefly, the enzymatic reaction mixtures contained an artificial substrate peptide, poly-Glu-Tyr (4:1) in freshly prepared base reaction buffer (20 mM HEPES of pH 7.5, 10 mM MgCl2, 1 mM EGTA, 0.02% Brij-35, 0.02 mg/mL BSA, 0.1 mM Na3VO4, 2 mM DTT, 1% DMSO). Wild-type and mutant EGFR were delivered into the substrate solution and gently mixed. Each inhibitor in 100% DMSO in a serial dilution was then delivered to the reaction mixture using the acoustic dispensing system (Echo550; nanoliter range). To initiate the enzymatic reaction, ^33P-ATP with a specific activity of 10 μCi/μL was added into the reaction mixture, and the mixture was further incubated for 2 h at room temperature. Radioactivity was then monitored by the filter-binding method after reactions were spotted onto P81 ion exchange paper and the filters were washed extensively in 0.75% phosphoric acid. Kinase activity data were expressed as the percent remaining kinase activity in test samples compared to vehicle (dimethyl sulfoxide) reactions. IC50 values and curve fits were calculated with Prism Software (GraphPad Software) at 10 different concentrations. Staurosporine was employed as the positive control in this study.

A further assay addresses T2, wild type EGFR (Homo sapiens, UniProt P00533).
T2 construct: purchased Reaction Biology Corp. (Malvern, PA, USA)
The experiment in a line: radiometric ([γ-33P]-ATP) kinase assay, wild-type EGFR. It counts as biochemical. The procedure:
as §1, §2

Assay [2] deals with Ba/F3 cell lines with the d746-750/T790M/C797S mutant EGFR. The experiment in a line: cell proliferation inhibition assay, Ba/F3 triple mutant EGFR. Conditions: for IC50: Mus musculus, BaF3, 72 h, read-out: IC50 Ba/F3^d746-750/T790M/C797S; for Selectivity: Table 4, Ba/F3 wild type IC50 over mutant IC50.
Description: (§3) The cells were treated with various concentrations of the compounds in duplicate. After 72 h, the fluorescence signals were measured at an excitation wavelength of 540 nm and an emission wavelength of 590 nm using a microplate reader. More specifically, the number of living cells was determined with CellTiter-Glo® Luminescent Cell Viability Assay (Promega).
Assay [3] concerns Ba/F3 cell lines with the wild type EGFR. The experiment in a line: cell proliferation inhibition assay, Ba/F3 wild-type EGFR. The following applies: Mus musculus, BaF3, 72 h, read-out: IC50 Ba/F3.
Description: as §3
The mark [4] stands for this setting: Table 3, derivatives of 2, mean ± SD of two experiments, read-out: IC50 EGFR^d746-750/T790M/C797S.
Setting [5] is: Table 3, derivatives of 2, wild type, mean ± SD of two experiments, read-out: IC50 EGFR.
[6] abbreviates: Table 2, derivatives of 1, mean ± SD of two experiments, read-out: IC50 EGFR^d746-750/T790M/C797S.
Setting [7] is: Table 2, derivatives of 1, wild type, mean ± SD of two experiments, read-out: IC50 EGFR.
The mark [8] stands for this setting: Table 1, mean ± standard deviations of two experiments, read-out: IC50 d746-750/T790M/C797S.
[9] abbreviates: Table 1, mean ± standard deviations of two experiments, read-out: IC50 Wild Type.

T1 sequence (P00533 with tags, fused parts or gaps DEL746-750/T790M/C797S): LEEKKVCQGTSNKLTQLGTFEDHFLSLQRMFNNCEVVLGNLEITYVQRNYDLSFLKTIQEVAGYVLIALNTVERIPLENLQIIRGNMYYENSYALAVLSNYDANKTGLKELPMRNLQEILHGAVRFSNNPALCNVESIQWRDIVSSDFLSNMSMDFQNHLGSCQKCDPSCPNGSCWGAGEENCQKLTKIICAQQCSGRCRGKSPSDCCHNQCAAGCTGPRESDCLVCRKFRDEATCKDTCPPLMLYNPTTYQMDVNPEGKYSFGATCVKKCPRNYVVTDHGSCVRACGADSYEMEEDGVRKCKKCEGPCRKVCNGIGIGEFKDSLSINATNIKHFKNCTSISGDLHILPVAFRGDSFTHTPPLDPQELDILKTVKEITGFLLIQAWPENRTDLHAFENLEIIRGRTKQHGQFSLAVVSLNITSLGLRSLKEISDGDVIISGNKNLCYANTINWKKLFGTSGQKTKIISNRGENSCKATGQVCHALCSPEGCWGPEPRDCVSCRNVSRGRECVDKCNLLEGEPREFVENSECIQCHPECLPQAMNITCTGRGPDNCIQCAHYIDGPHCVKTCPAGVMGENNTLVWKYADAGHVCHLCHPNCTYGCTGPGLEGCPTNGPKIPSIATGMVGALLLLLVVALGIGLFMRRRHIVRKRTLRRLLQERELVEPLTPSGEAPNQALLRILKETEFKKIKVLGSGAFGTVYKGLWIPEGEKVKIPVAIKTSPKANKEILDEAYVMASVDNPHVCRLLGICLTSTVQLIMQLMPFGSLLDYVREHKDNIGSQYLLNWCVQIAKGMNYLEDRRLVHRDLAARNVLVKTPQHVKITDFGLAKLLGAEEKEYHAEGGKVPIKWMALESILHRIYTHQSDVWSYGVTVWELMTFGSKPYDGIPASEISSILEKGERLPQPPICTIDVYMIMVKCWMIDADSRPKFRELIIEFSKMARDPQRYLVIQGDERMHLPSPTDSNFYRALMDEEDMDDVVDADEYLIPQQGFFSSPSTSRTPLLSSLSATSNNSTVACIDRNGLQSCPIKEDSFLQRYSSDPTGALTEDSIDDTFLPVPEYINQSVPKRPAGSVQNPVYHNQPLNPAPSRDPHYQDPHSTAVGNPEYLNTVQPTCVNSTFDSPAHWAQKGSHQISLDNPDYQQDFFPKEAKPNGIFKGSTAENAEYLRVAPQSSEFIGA
T2 sequence (P00533 25-1210): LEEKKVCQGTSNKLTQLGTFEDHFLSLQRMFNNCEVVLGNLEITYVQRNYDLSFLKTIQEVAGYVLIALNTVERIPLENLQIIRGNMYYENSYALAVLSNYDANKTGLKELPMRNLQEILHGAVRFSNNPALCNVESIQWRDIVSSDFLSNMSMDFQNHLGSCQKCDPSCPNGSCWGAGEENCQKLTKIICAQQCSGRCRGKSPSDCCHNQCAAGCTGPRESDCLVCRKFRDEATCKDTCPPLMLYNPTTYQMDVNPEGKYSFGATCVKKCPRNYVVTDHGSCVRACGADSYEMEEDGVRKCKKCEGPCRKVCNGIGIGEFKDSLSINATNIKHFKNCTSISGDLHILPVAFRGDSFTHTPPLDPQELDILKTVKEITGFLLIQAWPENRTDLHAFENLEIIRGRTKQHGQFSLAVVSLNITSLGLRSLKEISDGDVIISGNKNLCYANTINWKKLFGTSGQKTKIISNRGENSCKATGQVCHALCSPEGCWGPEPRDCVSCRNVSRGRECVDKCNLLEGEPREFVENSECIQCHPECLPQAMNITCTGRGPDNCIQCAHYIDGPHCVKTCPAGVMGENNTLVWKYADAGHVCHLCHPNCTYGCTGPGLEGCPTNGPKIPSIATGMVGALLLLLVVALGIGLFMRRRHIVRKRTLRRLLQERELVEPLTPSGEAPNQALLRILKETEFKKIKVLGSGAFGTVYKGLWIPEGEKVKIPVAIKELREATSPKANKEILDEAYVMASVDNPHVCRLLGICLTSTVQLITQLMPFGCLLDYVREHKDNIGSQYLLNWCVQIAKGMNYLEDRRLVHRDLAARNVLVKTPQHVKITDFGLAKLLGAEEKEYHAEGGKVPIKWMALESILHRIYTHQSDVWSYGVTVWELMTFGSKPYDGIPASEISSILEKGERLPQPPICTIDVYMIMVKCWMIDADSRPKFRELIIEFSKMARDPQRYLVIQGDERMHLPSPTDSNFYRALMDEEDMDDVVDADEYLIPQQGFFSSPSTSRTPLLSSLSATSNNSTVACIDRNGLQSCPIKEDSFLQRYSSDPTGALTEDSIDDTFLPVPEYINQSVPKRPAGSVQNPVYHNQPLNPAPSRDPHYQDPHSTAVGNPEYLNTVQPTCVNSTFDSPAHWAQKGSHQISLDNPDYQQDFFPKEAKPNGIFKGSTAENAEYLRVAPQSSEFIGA

With `CCN(CC)CCCNc1nc(-c2ccccc2O)nc2ccccc12` [Compound 12, 2-(4-((3-(diethylamino)propyl)amino)quinazolin-2-yl)phenol], the IC50 in assay [1] (setting [4]) was 516 ± 206 nM; on wild type EGFR (setting [5]), more than 50000 nM. Moreover, the Selectivity in assay [1] (Table 3) is given as more than 96.9.

`N#Cc1ccc(O)c(-c2nc(NCCc3c[nH]cn3)c3ccccc3n2)c1` [Compound 20, 3-(4-((2-(1H-imidazol-4-yl)ethyl)amino)quinazolin-2-yl)-4-hydroxybenzonitrile]: the “biochemical potency against the d746-750/T790M/C797S mutant (in words)” value in assay [1] is listed as “low-nanomolar”. Moreover, the IC50 was 4.84 ± 0.63 nM in assay [1] (setting [4]) and more than 50000 nM at wild type EGFR (setting [5]). The same compound came in with a Selectivity in assay [1] (Table 3) of more than 10331. Moreover, the “selectivity index / factor, triple mutant over the wild type” value in assay [1] (enzyme assays) is “higher than 10^4”.

`COc1cc(N2CCC(N3CCN(C)CC3)CC2)ccc1Nc1ncc(Cl)c(Nc2ccccc2P(C)(C)=O)n1` [Brigatinib, reference compound]: in assay [2], the IC50 was 67 ± 14 nM and the Selectivity was found to be 23.3. In addition, in assay [3], the IC50 came out at 1560 ± 450 nM.

Regarding `N#Cc1ccc(O)c(-c2nc(NCc3cocn3)c3ccccc3n2)c1` [Compound 17, 4-hydroxy-3-(4-((oxazol-4-ylmethyl)amino)quinazolin-2-yl)benzonitrile], the IC50 was 593 ± 76 nM in assay [1] (setting [4]) and more than 50000 nM at wild type EGFR (setting [5]). In addition, the Selectivity in assay [1] (Table 3) is more than 84.3.

Turning to `Cn1cnc(CNc2nc(-c3cc(C=O)ccc3O)nc3ccccc23)c1` [Compound 21, 4-hydroxy-3-(4-(((1-methyl-1H-imidazol-4-yl)methyl)amino)quinazolin-2-yl)benzaldehyde], the IC50 in assay [1] (setting [4]) was determined as 7.93 ± 1.68 nM; on wild type EGFR (setting [5]), 935 ± 173 nM. The compound further gave a Selectivity in assay [1] (Table 3) of 118.

As for `N#Cc1ccc(O)c(-c2nc(NCc3c[nH]cn3)c3ccccc3n2)c1` [Compound 18, 3-(4-(((1H-imidazol-4-yl)methyl)amino)quinazolin-2-yl)-4-hydroxybenzonitrile], the “antiproliferative activity against the d746-750/T790M/C797S mutant cell (in words)” value in assay [2] is recorded as “submicromolar level”. Also, the IC50 in assay [2] is 780 ± 310 nM; in assay [1] (setting [4]), 7.47 ± 0.39 nM; on wild type EGFR (setting [5]), more than 50000 nM; in assay [3], more than 5000 nM. Further, the Selectivity in assay [2] is reported as more than 6.41; in assay [1] (Table 3), more than 6693. In addition, in assay [1], the “biochemical potency against the d746-750/T790M/C797S mutant (in words)” value is “low-nanomolar level”. Moreover, in assay [1] (enzyme assays), the “selectivity in the inhibition of EGFR^d746-750/T790M/C797S over the wild type” value was “more than 6690 fold”.

`N#Cc1ccc(O)c(-c2nc(NCc3cc[nH]c3)c3ccccc3n2)c1` [Compound 16, 3-(4-(((1H-pyrrol-3-yl)methyl)amino)quinazolin-2-yl)-4-hydroxybenzonitrile]: the Selectivity in assay [1] (Table 3) was more than 693. At wild type EGFR (setting [5]), the IC50 was more than 50000 nM.

As to `COc1ccc2oc(/C=C3\Oc4c(ccc(O)c4CN4CCCC(C)C4)C3=O)cc2c1` (stereo not shown) [Compound 8, (Z)-6-hydroxy-2-((5-methoxybenzofuran-2-yl)methylene)-7-((3-methylpiperidin-1-yl)methyl)benzofuran-3(2H)-one], the IC50 in assay [1] (setting [6]) was 20100 ± 7200 nM; at wild type EGFR (setting [7]), more than 100000 nM. Moreover, in assay [1] (Table 2), the Selectivity is more than 4.98.

`O=C1/C(=C/c2cc3cc(O)ccc3o2)Oc2c1ccc(O)c2CN1CCNCC1` [Compound 11, (Z)-6-hydroxy-2-((5-hydroxybenzofuran-2-yl)methylene)-7-(piperazin-1-ylmethyl)benzofuran-3(2H)-one]: the IC50 in assay [1] (setting [6]) was determined as 715 ± 242 nM; at wild type EGFR (setting [7]) it was 1040 ± 160 nM. The compound also returned a Selectivity in assay [1] (Table 2) of 1.45.

On to `Oc1ccccc1-c1nc(NCCN2CCOCC2)c2ccccc2n1` [Compound 2], for which the IC50 in assay [1] (setting [8]) worked out at 1730 ± 380 nM; on wild type EGFR (setting [9]), 37100 ± 2300 nM. Also, the “Selectivity Index (IC50^WT/IC50^mutant)” value in assay [1] (Table 1) turned out to be 21.4. Also, in assay [1] (Table 3), the Selectivity is reported as 21.4.

For `Cn1cnc(CNc2nc(-c3cc(C#N)ccc3O)nc3ccccc23)c1` [Compound 19, 4-hydroxy-3-(4-(((1-methyl-1H-imidazol-4-yl)methyl)amino)quinazolin-2-yl)benzonitrile], in assay [2], the “antiproliferative activity against the d746-750/T790M/C797S mutant cell (in words)” value was “submicromolar level”. Further, the IC50 in assay [2] is 740 ± 220 nM; in assay [1] (setting [4]), 3.38 ± 1.02 nM; at wild type EGFR (setting [5]), more than 50000 nM; in assay [3], 2470 ± 890 nM. The Selectivity in assay [2] is 3.34; in assay [1] (Table 3) it was more than 14793. In addition, in assay [1], the “biochemical potency against the d746-750/T790M/C797S mutant (in words)” value is reported as “low-nanomolar”. Besides, the “selectivity index / factor, triple mutant over the wild type” value in assay [1] (enzyme assays) was “higher than 10^4”.

`O=C1/C(=C/c2cc3ccccc3o2)Oc2c1ccc(O)c2CN1CCNCC1` [Compound 9, (Z)-2-(benzofuran-2-ylmethylene)-6-hydroxy-7-(piperazin-1-ylmethyl)benzofuran-3(2H)-one]: the IC50 in assay [1] (setting [6]) is 1100 ± 360 nM; at wild type EGFR (setting [7]), 21300 ± 6300 nM.

Consider `CCN(CC)CCCNc1nc(-c2cc(C#N)ccc2O)nc2ccccc12` [Compound 13, 3-(4-((3-(diethylamino)propyl)amino)quinazolin-2-yl)-4-hydroxybenzonitrile], for which the figures for the IC50 (in assay [1] (setting [4]); at wild type EGFR (setting [5])) were 26.5 ± 8.4 nM and 8450 ± 1890 nM, respectively. This compound had a Selectivity in assay [1] (Table 3) of 319.

With `CC1CCCCN1Cc1c(O)ccc2c1O/C(=C\c1cc3ccccc3o1)C2=O` (stereo not shown) [Compound 1], the IC50 turned out to be 2110 ± 560 nM in assay [1] (setting [8]) and 72700 ± 4800 nM at wild type EGFR (setting [9]). Moreover, the “Selectivity Index (IC50^WT/IC50^mutant)” value in assay [1] (Table 1) is 34.5. In assay [1] (Table 2), the Selectivity was 34.5.

Turning to `COc1ccc2oc(/C=C3\Oc4c(ccc(O)c4CN4CCNCC4)C3=O)cc2c1` [Compound 10, (Z)-6-hydroxy-2-((5-methoxybenzofuran-2-yl)methylene)-7-(piperazin-1-ylmethyl)benzofuran-3(2H)-one], the values for the IC50 (in assay [1] (setting [6]); at wild type EGFR (setting [7])) were 1630 ± 430 nM and 36800 ± 3900 nM, respectively. The compound further showed a Selectivity in assay [1] (Table 2) of 22.6.

With `Oc1ccccc1-c1nc(NCc2cscn2)c2ccccc2n1` [Compound 14, 2-(4-((thiazol-4-ylmethyl)amino)quinazolin-2-yl)phenol], the values for the IC50 (in assay [1] (setting [4]); at wild type EGFR (setting [5])) were 1120 ± 210 nM and more than 50000 nM, respectively. The Selectivity in assay [1] (Table 3) is given as more than 44.6.

In the case of `COc1ccccc1Nc1nc(N)nc(-c2oc3ccccc3c2C)n1` [Compound 3], the IC50 in assay [1] (setting [8]) amounted to 2890 ± 910 nM; at wild type EGFR (setting [9]) it was 35500 ± 3500 nM. Further, in assay [1] (Table 1), the “Selectivity Index (IC50^WT/IC50^mutant)” value is reported as 12.3.

Consider `CC1CCN(Cc2c(O)ccc3c2O/C(=C\c2cc4ccccc4o2)C3=O)CC1` [Compound 7, (Z)-2-(benzofuran-2-ylmethylene)-6-hydroxy-7-((4-methylpiperidin-1-yl)methyl)benzofuran-3(2H)-one], for which the IC50 is 5290 ± 1800 nM in assay [1] (setting [6]) and 78700 ± 4600 nM on wild type EGFR (setting [7]). This compound also returned a Selectivity in assay [1] (Table 2) of 14.8.

In the case of `O=C1/C(=C/c2cc3ccccc3o2)Oc2c1ccc(O)c2CN1CCCCC1` [Compound 5, (Z)-2-(benzofuran-2-ylmethylene)-6-hydroxy-7-(piperidin-1-ylmethyl)benzofuran-3(2H)-one], the figures for the IC50 (in assay [1] (setting [6]); at wild type EGFR (setting [7])) were 3010 ± 730 nM and 68700 ± 3400 nM, respectively. This compound also registered a Selectivity in assay [1] (Table 2) of 22.8.

As for `CC1CCCN(Cc2c(O)ccc3c2O/C(=C\c2cc4ccccc4o2)C3=O)C1` (stereo not shown) [Compound 6, (Z)-2-(benzofuran-2-ylmethylene)-6-hydroxy-7-((3-methylpiperidin-1-yl)methyl)benzofuran-3(2H)-one], the IC50 in assay [1] (setting [6]) turned out to be 1940 ± 350 nM; at wild type EGFR (setting [7]) it was 65700 ± 6000 nM. For the same compound, in assay [1] (Table 2), the Selectivity is recorded as 33.9.

Consider `c1ccc(CNc2ncnc3oc(-c4ccccc4)c(-c4ccccc4)c23)cc1` [Compound 4], for which the IC50 in assay [1] (setting [8]) was determined as 802 ± 55 nM; on wild type EGFR (setting [9]), 5.88 ± 0.98 nM. Further, in assay [1] (Table 1), the “Selectivity Index (IC50^WT/IC50^mutant)” value was determined as 0.00733. Also, the “biochemical potency against the wild-type EGFR (in words)” value at wild type EGFR is listed as “nanomolar level”. In addition, the “higher inhibitory activity against the wild type than against the d746-750/T790M/C797S mutant” value on wild type EGFR (enzyme assays) came to 136 fold.

(Values after publication PMC7730458, “Rational Computational Design of Fourth-Generation EGFR Inhibitors to Combat Drug-Resistant Non-Small Cell Lung Cancer” (International Journal of Molecular Sciences, 2020).)
